Test results as given in PubChem BioAssay AID328 (DTP/NCI, 2004).
“And” between values parts separate entries of the source, which are not always exact repeats. Equal entries are not always repeated. Toxic doses and inconclusive results are not listed.

Tested on: BDF1 mice, P388 leukemia ip, median survival T/C
Assay: NCI In Vivo Anticancer Drug Screen. Data for tumor model P388 Leukemia (intraperitoneal) in B6D2F1 (BDF1) mice
Settings: endpoint: median survival time, higher = longer survival
Summary of the method: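 Each value expresses how treatment altered survival: treated-mouse outcome over vehicle-mouse outcome, both groups bearing the transplanted tumour.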

[1] = dose: 25.0 mg/kg/injection, schedule: Q04DX003 (ip), vehicle: saline sonified
[2] = dose: 100.0 mg/kg/injection, schedule: Q04DX003 (ip), vehicle: saline sonified
[3] = dose: 50.0 mg/kg/injection, schedule: Q01DX009 (ip), vehicle: saline with Tween-80
[4] = dose: 100.0 mg/kg/injection, schedule: Q04DX003 (ip), vehicle: saline with Tween-80
[5] = dose: 200.0 mg/kg/injection, schedule: Q04DX003 (ip), vehicle: saline with Tween-80
[6] = dose: 100.0 mg/kg/injection, schedule: Q01DX009 (ip), vehicle: saline with Tween-80
[7] = dose: 200.0 mg/kg/injection, schedule: Q01DX009 (ip), vehicle: saline with Tween-80
[8] = dose: 25.0 mg/kg/injection, schedule: Q01DX009 (ip), vehicle: saline with Tween-80
[9] = dose: 12.5 mg/kg/injection, schedule: Q01DX009 (ip), vehicle: saline with Tween-80
[10] = dose: 400.0 mg/kg/injection, schedule: Q04DX003 (ip), vehicle: saline with Tween-80

In the case of CCCCOC1OCN(c2ccc(OC)cc2)CC1(C)C (centres undefined), the T/C (dose: 50.0 mg/kg/injection, schedule: Q01DX009 (ip), vehicle: saline + alcohol) is reported as 114 % of control, the T/C (dose: 100.0 mg/kg/injection, schedule: Q01DX009 (ip), vehicle: saline + alcohol) is reported as 107 % of control and the T/C (dose: 200.0 mg/kg/injection, schedule: Q01DX009 (ip), vehicle: saline + alcohol) is reported as 118 % of control.
With NC1=NC(c2ccc(Cl)cc2)N(c2ccc(S(=O)(=O)Nc3ncccn3)cc2)C(N)=N1 (centres undefined) the T/C [1] was 104 % of control, the T/C (dose: 50.0 mg/kg/injection, schedule: Q04DX003 (ip), vehicle: saline sonified) was 104 % of control and the T/C [2] was 95 % of control.
CC(C)=CC=O was tested, and the T/C (dose: 100.0 mg/kg/injection, schedule: Q01DX001 (ip), vehicle: saline with Tween-80) was 100 % of control, the T/C (dose: 200.0 mg/kg/injection, schedule: Q01DX001 (ip), vehicle: saline with Tween-80) was 96 % of control and the T/C (dose: 400.0 mg/kg/injection, schedule: Q01DX001 (ip), vehicle: saline with Tween-80) was 100 % of control.
With COc1cc2cc(c1Cl)N(C)C(=O)C[C@H](OC(=O)[C@H](C)N(C)C(=O)CC(C)C)[C@]1(C)O[C@H]1[C@H](C)[C@@H]1C[C@@](O)(NC(=O)O1)[C@H](OC)C=C/C=C(\C)C2 the T/C (dose: 0.1 micrograms/kg/injection, schedule: Q01DX009 (ip), vehicle: saline + alcohol) was 120 % of control, the T/C (dose: 0.4 micrograms/kg/injection, schedule: Q01DX009 (ip), vehicle: saline + alcohol) was 174 % of control and the T/C (dose: 0.8 micrograms/kg/injection, schedule: Q01DX009 (ip), vehicle: saline + alcohol) was 158 % of control. The T/C (dose: 1.6 micrograms/kg/injection, schedule: Q01DX009 (ip), vehicle: saline + alcohol) was 154 % of control, the T/C (dose: 3.1 micrograms/kg/injection, schedule: Q01DX009 (ip), vehicle: saline + alcohol) was 158 % of control and 165 % of control and the T/C (dose: 6.2 micrograms/kg/injection, schedule: Q01DX009 (ip), vehicle: saline + alcohol) was 154 % of control and 201 % of control. For the same compound, the T/C (dose: 12.5 micrograms/kg/injection, schedule: Q01DX009 (ip), vehicle: saline + alcohol) was 177 % of control and 187 % of control and the T/C (dose: 25.0 micrograms/kg/injection, schedule: Q01DX009 (ip), vehicle: saline + alcohol) was 116 % of control.
COc1cc([N+](=O)[O-])c(/C=C2/c3cc(OC)c(OC)cc3CCN2C)cc1Br was tested, and the T/C (dose: 100.0 mg/kg/injection, schedule: Q01DX009 (ip), vehicle: Klucel (hydroxypropylcellulose) (HPC)) was 109 % of control, the T/C (dose: 100.0 mg/kg/injection, schedule: Q04DX003 (ip), vehicle: Klucel (hydroxypropylcellulose) (HPC)) was 100 % of control and the T/C (dose: 200.0 mg/kg/injection, schedule: Q01DX009 (ip), vehicle: Klucel (hydroxypropylcellulose) (HPC)) was 90 % of control. The T/C (dose: 200.0 mg/kg/injection, schedule: Q04DX003 (ip), vehicle: Klucel (hydroxypropylcellulose) (HPC)) was 100 % of control, the T/C (dose: 400.0 mg/kg/injection, schedule: Q01DX009 (ip), vehicle: Klucel (hydroxypropylcellulose) (HPC)) was 104 % of control and the T/C (dose: 400.0 mg/kg/injection, schedule: Q04DX003 (ip), vehicle: Klucel (hydroxypropylcellulose) (HPC)) was 100 % of control.
For NC(=O)c1ccc(Cl)c(Cl)c1, the T/C (dose: 100.0 mg/kg/injection, schedule: Q04DX003 (ip), vehicle: other) was 116 % of control and the T/C (dose: 200.0 mg/kg/injection, schedule: Q04DX003 (ip), vehicle: other) was 122 % of control.
In the case of CCCCOCN(COCCCC)C12CC3CC(CC(C3)C1)C2, the T/C [3] is reported as 120 % of control.
For Cc1ncc([N+](=O)[O-])n1CCSC(N)=O, the T/C [4] was 120 % of control and the T/C [5] was 160 % of control.
With O=C(O)C(=O)O.[U] the T/C (dose: 25.0 mg/kg/injection, schedule: Q04DX003 (ip), vehicle: saline with Tween-80) was 100 % of control.
In the case of O=C(CCCN1CCC(C(=O)c2ccc(Cl)cc2)CC1)c1ccc(F)cc1, the T/C (dose: 12.5 mg/kg/injection, schedule: Q01DX009 (ip), vehicle: Klucel (hydroxypropylcellulose) (HPC)) is reported as 112 % of control.
In the case of O=C(O)c1ccc(NC(=O)C(F)(F)F)cc1, the T/C [1] is reported as 86 % of control and the T/C [2] is reported as 95 % of control.
In the case of COc1ccc(C2C=C(c3ccc4c(c3)OCO4)Oc3c2c(=O)oc2ccccc32)cc1OC (centres undefined), the T/C (dose: 12.5 mg/kg/injection, schedule: Q01DX009 (ip), vehicle: water) is reported as 99 % of control, the T/C (dose: 25.0 mg/kg/injection, schedule: Q01DX009 (ip), vehicle: water) is reported as 94 % of control and the T/C (dose: 25.0 mg/kg/injection, schedule: Q04DX003 (ip), vehicle: water) is reported as 94 % of control. The T/C (dose: 50.0 mg/kg/injection, schedule: Q01DX009 (ip), vehicle: water) was 94 % of control, the T/C (dose: 50.0 mg/kg/injection, schedule: Q04DX003 (ip), vehicle: water) was 101 % of control and the T/C (dose: 100.0 mg/kg/injection, schedule: Q01DX009 (ip), vehicle: water) was 99 % of control. The T/C (dose: 100.0 mg/kg/injection, schedule: Q04DX003 (ip), vehicle: water) was 97 % of control, the T/C (dose: 200.0 mg/kg/injection, schedule: Q01DX009 (ip), vehicle: water) was 94 % of control and the T/C (dose: 200.0 mg/kg/injection, schedule: Q04DX003 (ip), vehicle: water) was 110 % of control. For the same compound, the T/C (dose: 400.0 mg/kg/injection, schedule: Q04DX003 (ip), vehicle: water) was 106 % of control.
For c1ccc2c(c1)ccc1nc3c4ccccc4c4ccccc4c3nc12, the T/C [3] was 114 % of control, the T/C [6] was 113 % of control and the T/C [7] was 105 % of control.
With OCC1OC(Nc2ccccc2/C=N\O)C(O)C1O (centres undefined) the T/C [6] was 111 % of control and the T/C [7] was 94 % of control.
O=C(NNC1CCCCC1)c1ccccc1 was tested, and the T/C [8] was 95 % of control.
In the case of O=C1N/C(=N\c2nc3ccccc3s2)c2ccccc21, the T/C (dose: 3.13 mg/kg/injection, schedule: Q01DX009 (ip), vehicle: saline with Tween-80) is reported as 90 % of control, the T/C (dose: 6.25 mg/kg/injection, schedule: Q01DX009 (ip), vehicle: saline with Tween-80) is reported as 92 % of control and the T/C [9] is reported as 92 % of control.
In the case of Cn1nc(-c2ccccc2)nc1[N+](=O)[O-], the T/C [9] is reported as 114 % of control, the T/C [8] is reported as 97 % of control and the T/C [3] is reported as 93 % of control. The T/C [6] was 99 % of control.
In the case of O=C1C(=C(C(F)(F)F)C(F)(F)F)CCc2ccc([N+](=O)[O-])cc21, the T/C [4] is reported as 110 % of control and the T/C [10] is reported as 110 % of control.
Cc1cccc(CSc2nc(N)nc3ncn(C4CC(O)C(CO)O4)c23)n1 (centres undefined) was tested, and the T/C (dose: 100.0 mg/kg/injection, schedule: Q01DX009 (ip), vehicle: saline) was 103 % of control, the T/C (dose: 100.0 mg/kg/injection, schedule: Q04DX003 (ip), vehicle: saline) was 100 % of control and the T/C (dose: 200.0 mg/kg/injection, schedule: Q01DX009 (ip), vehicle: saline) was 97 % of control. The T/C (dose: 200.0 mg/kg/injection, schedule: Q04DX003 (ip), vehicle: saline) was 104 % of control, the T/C (dose: 400.0 mg/kg/injection, schedule: Q01DX009 (ip), vehicle: saline) was 103 % of control and the T/C (dose: 400.0 mg/kg/injection, schedule: Q04DX003 (ip), vehicle: saline) was 100 % of control.
With O=C(NCc1cnccn1)c1ccccc1Cl the T/C [4] was 92 % of control, the T/C [5] was 104 % of control and the T/C [10] was 100 % of control.
In the case of Nc1ncnc2c1nnn2C1OC(CO)C(O)C1O (centres undefined), the T/C (dose: 10.0 mg/kg/injection, schedule: Q01DX009 (ip), vehicle: Klucel (hydroxypropylcellulose) (HPC)) is reported as 150 % of control, the T/C (dose: 15.0 mg/kg/injection, schedule: Q01DX009 (ip), vehicle: Klucel (hydroxypropylcellulose) (HPC)) is reported as 160 % of control and the T/C (dose: 18.0 mg/kg/injection, schedule: Q01DX009 (ip), vehicle: Klucel (hydroxypropylcellulose) (HPC)) is reported as 161 % of control. For the same compound, the T/C (dose: 24.0 mg/kg/injection, schedule: Q01DX009 (ip), vehicle: Klucel (hydroxypropylcellulose) (HPC)) was 96 % of control, the T/C (dose: 27.0 mg/kg/injection, schedule: Q01DX009 (ip), vehicle: Klucel (hydroxypropylcellulose) (HPC)) was 170 % of control and the T/C (dose: 28.0 mg/kg/injection, schedule: Q01DX009 (ip), vehicle: Klucel (hydroxypropylcellulose) (HPC)) was 170 % of control. The T/C (dose: 35.0 mg/kg/injection, schedule: Q01DX009 (ip), vehicle: Klucel (hydroxypropylcellulose) (HPC)) was 99 % of control, the T/C (dose: 40.0 mg/kg/injection, schedule: Q01DX009 (ip), vehicle: Klucel (hydroxypropylcellulose) (HPC)) was 104 % of control and the T/C (dose: 42.0 mg/kg/injection, schedule: Q01DX009 (ip), vehicle: Klucel (hydroxypropylcellulose) (HPC)) was 170 % of control. The T/C (dose: 53.0 mg/kg/injection, schedule: Q01DX009 (ip), vehicle: Klucel (hydroxypropylcellulose) (HPC)) was 107 % of control, the T/C (dose: 60.0 mg/kg/injection, schedule: Q01DX009 (ip), vehicle: Klucel (hydroxypropylcellulose) (HPC)) was 91 % of control and the T/C (dose: 63.0 mg/kg/injection, schedule: Q01DX009 (ip), vehicle: Klucel (hydroxypropylcellulose) (HPC)) was 115 % of control. For the same compound, the T/C (dose: 79.0 mg/kg/injection, schedule: Q01DX009 (ip), vehicle: Klucel (hydroxypropylcellulose) (HPC)) was 102 % of control.
